Results taken from ChEMBL document CHEMBL1201862, “PubChem BioAssay data set” (2004).
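Method: 48-hour compound exposure of cells in 96-well plates, five concentrations, linear interpolation of endpoints. GI50: concentration for 50% inhibition of growth.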 The source made the active and inactive calls. Rule as the data show it: active = GI50 up to about 1.1 µM and inactive = higher.

Tests used:
Test in all cases: NCI tumour cell line growth inhibition, 48 h
[1] = test system: CAKI-1
[2] = test system: SK-MEL-5
[3] = test system: SK-MEL-2
[4] = test system: RXF 393
[5] = test system: SF-268
[6] = test system: SNB-75
[7] = test system: IGROV-1
[8] = test system: A549
[9] = test system: OVCAR-8
[10] = test system: KM12
[11] = test system: BT-549
[12] = test system: HCC 2998
[13] = test system: HOP-92
[14] = test system: SK-MEL-28
[15] = test system: HT-29
[16] = test system: ACHN
[17] = test system: NCI/ADR-RES
[18] = test system: HL-60
[19] = test system: SR

SMILES	GI50 [1]	GI50 [2]	GI50 [3]	GI50 [4]	GI50 [5]	GI50 [6]	GI50 [7]	GI50 [8]	GI50 [9]	GI50 [10]	GI50 [11]	GI50 [12]	GI50 [13]	GI50 [14]	GI50 [15]	GI50 [16]	GI50 [17]	GI50 [18]	GI50 [19]
CCOC(=O)c1cn2c(n1)sc1cc(OC)ccc12	13.5 µM (inactive)	2.72 µM (inactive)	14.9 µM (inactive)	13.8 µM (inactive)	27.4 µM (inactive)	33.2 µM (inactive)	26.7 µM (inactive)	7.38 µM (inactive)	6.21 µM (inactive)	3.34 µM (inactive)	> 69.7 µM (inactive)	31 µM (inactive)	> 100 µM (inactive)	> 100 µM (inactive)	2.82 µM (inactive)	8.75 µM (inactive)	19.5 µM (inactive)		
CC12CCC(CC1(Cl)Cl)C2 (stereo not given)	> 100 µM (inactive)	> 100 µM (inactive)	> 100 µM (inactive)		> 100 µM (inactive)	> 100 µM (inactive)	> 100 µM (inactive)	> 100 µM (inactive)	> 100 µM (inactive)	> 100 µM (inactive)	> 100 µM (inactive)		> 100 µM (inactive)	> 100 µM (inactive)	> 100 µM (inactive)	> 100 µM (inactive)	> 100 µM (inactive)	> 100 µM (inactive)	> 100 µM (inactive)
CCCCCCNc1n[nH]c(=O)c2c1nnn2Cc1ccccc1	> 100 µM (inactive)	> 100 µM (inactive)	> 100 µM (inactive)					> 100 µM (inactive)	> 100 µM (inactive)	> 100 µM (inactive)	> 100 µM (inactive)	> 100 µM (inactive)	86.9 µM (inactive)	> 100 µM (inactive)	> 100 µM (inactive)	> 100 µM (inactive)	> 100 µM (inactive)	> 100 µM (inactive)	> 100 µM (inactive)
Cc1ccc(S(=O)(=O)NC(=O)NC(Cc2ccc(O)c(O)c2)C(=O)O)cc1 (stereo not given)	> 100 µM (inactive)	> 100 µM (inactive)	> 100 µM (inactive)	14 µM (inactive)	0.745 µM (active)		> 100 µM (inactive)	> 100 µM (inactive)	81.8 µM (inactive)	> 100 µM (inactive)	> 100 µM (inactive)		80.5 µM (inactive)	> 100 µM (inactive)	> 100 µM (inactive)	> 100 µM (inactive)	> 100 µM (inactive)	> 100 µM (inactive)	
O=C(NCCCN(CCCCN(CCCNC(=O)c1cc(S(=O)(=O)O)cc(O)c1O)C(=O)c1cc(S(=O)(=O)O)cc(O)c1O)C(=O)c1cc(S(=O)(=O)O)cc(O)c1O)c1cc(S(=O)(=O)O)cc(O)c1O	> 100 µM (inactive)	> 100 µM (inactive)	> 100 µM (inactive)		> 100 µM (inactive)	> 100 µM (inactive)	> 100 µM (inactive)	> 100 µM (inactive)	> 100 µM (inactive)	> 100 µM (inactive)	> 100 µM (inactive)	> 100 µM (inactive)	> 100 µM (inactive)	> 100 µM (inactive)	> 100 µM (inactive)	> 100 µM (inactive)	> 100 µM (inactive)	66.1 µM (inactive)	60.4 µM (inactive)
CC(Cn1c2c(c3cc(O)ccc31)CCc1ccc(O)cc1-2)N(C)C (stereo not given)	22.4 µM (inactive)		16.4 µM (inactive)	22.1 µM (inactive)	20.7 µM (inactive)	15.8 µM (inactive)	12.8 µM (inactive)		17.7 µM (inactive)	15.9 µM (inactive)	16.3 µM (inactive)				18.2 µM (inactive)	15.8 µM (inactive)	20.2 µM (inactive)	64.1 µM (inactive)	48.2 µM (inactive)
N#CC(C#N)=c1c(=O)c2c3ccccc3cc3cccc1c32	> 100 µM (inactive)	> 100 µM (inactive)	92.3 µM (inactive)		> 100 µM (inactive)	> 100 µM (inactive)	40.6 µM (inactive)	> 100 µM (inactive)		58.7 µM (inactive)	> 100 µM (inactive)	> 100 µM (inactive)	> 100 µM (inactive)	89.9 µM (inactive)	> 100 µM (inactive)	37.1 µM (inactive)	> 100 µM (inactive)	68.1 µM (inactive)	
COc1ccc2[nH]c3c(c2c1)CC(=S)N1CCCC(CC3=O)C1 (stereo not given)	91 µM (inactive)	37.1 µM (inactive)	29.3 µM (inactive)	20.7 µM (inactive)	45 µM (inactive)	52.4 µM (inactive)	64.4 µM (inactive)	32.4 µM (inactive)	93.3 µM (inactive)	25.4 µM (inactive)	> 100 µM (inactive)	35.6 µM (inactive)	> 100 µM (inactive)	86.9 µM (inactive)	45.4 µM (inactive)	38.8 µM (inactive)	63.5 µM (inactive)		
